From PubChem BioAssay AID248 (DTP/NCI, 2004)
Several values for one entry are separate records, joined by “and”; a condition that tells them apart may be missing. Equal entries are not always repeated. Toxic doses and inconclusive results are not listed. Rule as the data show it: active = T/C of 150% or more; inactive = T/C below 125%.

System: L1210 leukemia ip in BDF1 mice, survival T/C
Assay: NCI In Vivo Anticancer Drug Screen. Data for tumor model L1210 Leukemia (intraperitoneal) in B6D2F1 (BDF1) mice
Conditions: endpoint: mean survival time, higher = longer survival
Procedure, shortened: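 Antitumor effect is assessed in tumor-bearing animals. Survival in the compound arm is compared with a vehicle-dosed control arm and expressed as their quotient.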

[1] = dose: 100.0 mg/kg/injection, schedule: Q01DX001 (ip), vehicle: saline
[2] = dose: 200.0 mg/kg/injection, schedule: Q01DX001 (ip), vehicle: saline
[3] = dose: 400.0 mg/kg/injection, schedule: Q01DX001 (ip), vehicle: saline
[4] = dose: 25.0 mg/kg/injection, schedule: Q01DX001 (ip), vehicle: saline with Tween-80
[5] = dose: 100.0 mg/kg/injection, schedule: Q04DX002 (ip), vehicle: Klucel (hydroxypropylcellulose) (HPC)
[6] = dose: 200.0 mg/kg/injection, schedule: Q04DX002 (ip), vehicle: Klucel (hydroxypropylcellulose) (HPC)
[7] = dose: 400.0 mg/kg/injection, schedule: Q04DX002 (ip), vehicle: Klucel (hydroxypropylcellulose) (HPC)
[8] = dose: 200.0 mg/kg/injection, schedule: Q04DX003 (ip), vehicle: saline with Tween-80

Measured: T/C

C[CH2][Sb]([CH2]C)([CH2]C)([O]C(C)=O)[O]C(C)=O
inactive: dose: 5.0 mg/kg/injection, schedule: Q04DX002 (ip), vehicle: saline with Tween-80 97 % of control | dose: 10.0 mg/kg/injection, schedule: Q04DX002 (ip), vehicle: saline with Tween-80 97 % of control | dose: 20.0 mg/kg/injection, schedule: Q04DX002 (ip), vehicle: saline with Tween-80 104 % of control

C=CCSc1n[nH]c(=O)[nH]c1=O
inactive: [1] 111 % of control | [2] 92 % of control | [3] 103 % of control

CCOC(=O)/C=C/c1ccc([N+](=O)[O-])cc1
inactive: dose: 100.0 mg/kg/injection, schedule: Q04DX003 (ip), vehicle: Klucel (hydroxypropylcellulose) (HPC) 95 % of control | dose: 200.0 mg/kg/injection, schedule: Q04DX003 (ip), vehicle: Klucel (hydroxypropylcellulose) (HPC) 102 % of control | dose: 400.0 mg/kg/injection, schedule: Q04DX003 (ip), vehicle: Klucel (hydroxypropylcellulose) (HPC) 98 % of control

Cc1cc(=O)[nH]c2c1C(=O)c1c(C)cc(=O)n(C)c1C2=O
inactive: dose: 0.75 mg/kg/injection, schedule: Q01DX009 (ip), vehicle: Klucel (hydroxypropylcellulose) (HPC) 95 % of control | dose: 1.0 mg/kg/injection, schedule: Q04DX003 (ip), vehicle: Klucel (hydroxypropylcellulose) (HPC) 93 % of control | dose: 1.5 mg/kg/injection, schedule: Q01DX009 (ip), vehicle: Klucel (hydroxypropylcellulose) (HPC) 100 % of control | dose: 3.0 mg/kg/injection, schedule: Q01DX009 (ip), vehicle: Klucel (hydroxypropylcellulose) (HPC) 95 % of control and 96 % of control | dose: 3.0 mg/kg/injection, schedule: Q04DX003 (ip), vehicle: Klucel (hydroxypropylcellulose) (HPC) 105 % of control | dose: 6.0 mg/kg/injection, schedule: Q04DX003 (ip), vehicle: Klucel (hydroxypropylcellulose) (HPC) 92 % of control

Cc1ccc(N=Nc2c(C)nc(N)nc2C)c(C)c1
inactive: dose: 75.0 mg/kg/injection, schedule: Q01DX001 (ip), vehicle: other 98 % of control | dose: 150.0 mg/kg/injection, schedule: Q01DX001 (ip), vehicle: other 98 % of control | dose: 300.0 mg/kg/injection, schedule: Q01DX001 (ip), vehicle: other 98 % of control

NC(N)=N/N=C/c1cc(Cl)cc(Cl)c1O
inactive: dose: 75.0 mg/kg/injection, schedule: Q01DX001 (ip), vehicle: saline 101 % of control

Cc1ccc(S(=O)(=O)O)cc1
inactive: dose: 12.5 mg/kg/injection, schedule: Q01DX009 (ip), vehicle: saline 101 % of control | dose: 25.0 mg/kg/injection, schedule: Q01DX009 (ip), vehicle: saline 98 % of control | dose: 50.0 mg/kg/injection, schedule: Q01DX009 (ip), vehicle: saline 98 % of control | dose: 100.0 mg/kg/injection, schedule: Q01DX009 (ip), vehicle: saline 97 % of control | dose: 100.0 mg/kg/injection, schedule: Q04DX002 (ip), vehicle: saline 97 % of control | dose: 100.0 mg/kg/injection, schedule: Q04DX003 (ip), vehicle: saline 102 % of control | dose: 200.0 mg/kg/injection, schedule: Q01DX009 (ip), vehicle: saline 96 % of control | dose: 200.0 mg/kg/injection, schedule: Q04DX002 (ip), vehicle: saline 101 % of control | dose: 400.0 mg/kg/injection, schedule: Q04DX002 (ip), vehicle: saline 108 % of control

CCOC(=O)N/N=C/c1ccc([N+](=O)[O-])cc1
inactive: [1] 94 % of control | [2] 98 % of control | [3] 102 % of control

CC(=O)OC1CCC2(C)C(CCC3C2CCC2(C)C3CC3OC(CCCC(C)CO)C(C)C32)C1 (configuration not stated)
inactive: [4] 88 % of control | dose: 50.0 mg/kg/injection, schedule: Q01DX001 (ip), vehicle: saline with Tween-80 98 % of control | dose: 100.0 mg/kg/injection, schedule: Q01DX001 (ip), vehicle: saline with Tween-80 95 % of control | dose: 400.0 mg/kg/injection, schedule: Q01DX001 (ip), vehicle: saline with Tween-80 95 % of control

CC(C)COC(=O)C#CC(=O)OCC(C)C
inactive: dose: 25.0 mg/kg/injection, schedule: Q01DX001 (ip), vehicle: water 111 % of control | dose: 50.0 mg/kg/injection, schedule: Q01DX001 (ip), vehicle: water 106 % of control | dose: 100.0 mg/kg/injection, schedule: Q01DX001 (ip), vehicle: water 116 % of control

CN(C)c1ccc(C(=O)c2ccc(N(C)C)c(N)c2)cc1N
inactive: dose: 100.0 mg/kg/injection, schedule: Q01DX001 (ip), vehicle: other 106 % of control | dose: 200.0 mg/kg/injection, schedule: Q01DX001 (ip), vehicle: other 92 % of control | dose: 400.0 mg/kg/injection, schedule: Q01DX001 (ip), vehicle: other 101 % of control

CCCCCCCCCCCCCCCCCCNC1=C(Cl)C(=O)C(NCCCCCCCCCCCCCCCCCC)=C(Cl)C1=O
inactive: dose: 50.0 mg/kg/injection, schedule: Q01DX001 (ip), vehicle: carboxymethylcellulose (CMC) 100 % of control

CCOC(=O)c1ccc(NP(=O)(Nc2ccc(C(=O)OCC)cc2)c2ccc([N+](=O)[O-])cc2)cc1
inactive: dose: 100.0 mg/kg/injection, schedule: Q04DX003 (ip), vehicle: acetone 87 % of control | dose: 200.0 mg/kg/injection, schedule: Q04DX003 (ip), vehicle: acetone 95 % of control | dose: 400.0 mg/kg/injection, schedule: Q04DX003 (ip), vehicle: acetone 95 % of control

CCOc1ccccc1NC(=O)Oc1cc(C)c(Cl)c(C)c1
inactive: dose: 100.0 mg/kg/injection, schedule: Q01DX009 (ip), vehicle: Klucel (hydroxypropylcellulose) (HPC) 104 % of control | dose: 200.0 mg/kg/injection, schedule: Q01DX009 (ip), vehicle: Klucel (hydroxypropylcellulose) (HPC) 98 % of control | dose: 400.0 mg/kg/injection, schedule: Q01DX009 (ip), vehicle: Klucel (hydroxypropylcellulose) (HPC) 100 % of control

CCCCCCCCCCCCCC1=NCCN1CCO
inactive: dose: 5.0 mg/kg/injection, schedule: Q01DX009 (ip), vehicle: saline 94 % of control | dose: 10.0 mg/kg/injection, schedule: Q01DX009 (ip), vehicle: saline 96 % of control | dose: 20.0 mg/kg/injection, schedule: Q01DX009 (ip), vehicle: saline 86 % of control

COc1cc2c(c(-c3c(O)c(OC)cc4c3CC[n+]3cc5c(OC)c(OC)ccc5cc3-4)c1O)CC[n+]1cc3c(OC)c(OC)ccc3cc1-2
inactive: dose: 50.0 mg/kg/injection, schedule: Q04DX002 (ip), vehicle: Klucel (hydroxypropylcellulose) (HPC) 100 % of control | [5] 108 % of control | [6] 100 % of control

COc1cc([N+](=O)[O-])ccc1NC(=O)c1cccc([N+](=O)[O-])c1C(=O)O
inactive: [5] 95 % of control | [6] 103 % of control | [7] 100 % of control

CCCC1OC1CCC (configuration not stated)
inactive: dose: 100.0 mg/kg/injection, schedule: Q04DX003 (ip), vehicle: saline with Tween-80 109 % of control | [8] 97 % of control | dose: 400.0 mg/kg/injection, schedule: Q04DX003 (ip), vehicle: saline with Tween-80 91 % of control

CCCCOC1NC(=O)NC(=O)C1=[N+]=[N-] (configuration not stated)
inactive: dose: 50.0 mg/kg/injection, schedule: Q04DX003 (ip), vehicle: saline with Tween-80 98 % of control | [8] 102 % of control

O=C(COc1ccccc1)Nc1ccc(Br)cc1
inactive: [5] 103 % of control | [6] 103 % of control | [7] 95 % of control

O=C1C(Cl)=C(NC2CCCC2)C(=O)c2ccccc21
inactive: dose: 12.5 mg/kg/injection, schedule: Q01DX001 (ip), vehicle: saline with Tween-80 94 % of control | [4] 94 % of control
